System: transient lower esophageal sphincter relaxations (TLESRs)
Experiment: Screening for compounds active against TLESR, Barostat model (air infusion to an intragastric pressure of 10±1 mmHg)
Assay type: in vivo, Adult Labrador retrievers
Conditions: dose 1 μmol/kg/h, infusion during 60 min
Procedure: Adult Labrador retrievers of both genders, trained to stand in a Pavlov sling, are used. Mucosa-to-skin esophagostomies are formed and the dogs are allowed to recover completely before any experiments are done. In brief, after fasting for approximately 17 h with free supply of water, a multilumen sleeve/sidehole assembly ([…], Adelaide, South Australia) is introduced through the esophagostomy to measure gastric, lower esophageal sphincter (LES) and esophageal pressures. The assembly is perfused with water using a low-compliance manometric perfusion pump ([…], Adelaide, South Australia). An air-perfused tube is passed in the oral direction to measure swallows, and an antimony electrode monitored pH, 3 cm above the LES. All signals are amplified and acquired on a personal computer at 10 Hz. When a baseline measurement free from fasting gastric/LES phase III motor activity has been obtained, placebo (0.9% NaCl) or test compound is administered intravenously (i.v., 0.5 ml/kg) in a foreleg vein. […] Immediately following the meal, air is insufflated at 40 ml/min. In an alternative model (Barostat model), the infusion of the nutrient meal is followed by air infusion at a rate of 500 ml/min until a intragastric pressure of 10±1 mmHg is obtained. […]

N#Cc1cc(F)cc(-c2nc(-c3ccc(F)cn3)no2)c1 [3-fluoro-5-[3-(5-fluoropyridin-2-yl)-1,2,4-oxadiazol-5-yl]benzonitrile]
% INHIBITION ± SEM (N): 70 ± 4 (3) %
